Target: T1, human M2 receptor (Homo sapiens, UniProt P08172)
T1 construct: expressed in transfected cells; host or cells: CHO-DUKX (CHO-DUKX-M2-GIRK)
T1 sequence (P08172 1-466): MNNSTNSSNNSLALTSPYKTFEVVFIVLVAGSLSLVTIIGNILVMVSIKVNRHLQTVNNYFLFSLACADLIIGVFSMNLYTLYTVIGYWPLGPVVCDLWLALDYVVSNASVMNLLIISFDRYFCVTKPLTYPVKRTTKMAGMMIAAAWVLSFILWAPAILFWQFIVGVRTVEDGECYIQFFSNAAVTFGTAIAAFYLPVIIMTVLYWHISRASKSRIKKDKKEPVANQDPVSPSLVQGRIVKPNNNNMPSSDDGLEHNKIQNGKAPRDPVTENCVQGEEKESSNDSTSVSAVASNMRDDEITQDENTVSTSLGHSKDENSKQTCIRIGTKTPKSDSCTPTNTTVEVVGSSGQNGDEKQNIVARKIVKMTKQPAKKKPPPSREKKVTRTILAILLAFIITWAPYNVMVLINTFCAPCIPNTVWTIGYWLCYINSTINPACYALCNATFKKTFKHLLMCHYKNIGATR
Test: Functional M2-GIRK1/4 activation test: allosteric potency (EC50) and efficiency at EC20 acetylcholine
Assay type: cell-based
Details: CHO-DUKX-M2-GIRK cells; for EC50: voltage-sensitive dye, acetylcholine at EC20, in some cases mean of two or more determinations
Excerpt: The binding of orthosteric agonists (endogenous ligand: acetylcholine) to the M2 receptor leads to receptor activation or a change in conformation of the receptor in the manner of a shift in equilibrium in favour of the active receptor conformation.
The agonist-induced change in conformation of the M2 receptor results in a Gαi protein activation. […] Under physiological conditions, the result is then a selective efflux of potassium from the cell along the electrochemical gradient. […] The extent of hyperpolarization can therefore be regarded as a measure of the activation of the M2 receptor.
The test cell used is a recombinant CHO-DUKX cell line which has been stably transfected with cDNA coding for the human M2 receptor and with cDNA coding for both GIRK1/4 subunits (CHO-DUKX-M2-GIRK). The transmembrane potential, or the relative changes in the transmembrane potential as a function of substance addition or M2 activation, is determined by means of a voltage-sensitive dye (FLIPR Membrane Potential Assay Kit Blue, Molecular Devices #R8034) and the measurement of cell fluorescence using a proprietary fluorescence imaging instrument.
The sowing medium consisted of MEM alpha medium (supplemented with 5% PCS, 2% Glutamax, no genticin).
For the particular measurement, the medium was removed and the cells were laden with the volt-age-sensitive dye for at least 6 min at room temperature (30 μl of loading buffer per 384-well). This was followed, in a first measurement, by the determination of the fluorescence for the resting transmembrane potential for a period of 5 sec. Thereafter, 10 μl in each case of the test substances diluted in loading buffer were added, followed by a second measurement to determine the transmembrane potential for a period of 50 sec in 1 sec increments. Finally, the cells were admixed with 10 μl of agonist solution (acetylcholine dissolved in loading buffer). Acetylcholine was used at the concentration corresponding to the EC20, which had been determined in a preliminary test. The M2-mediated GIRK1/4 activation or hyperpolarization was then monitored in a third measurement over a period of 60 sec. The EC50 value (degree of allosteric potency of test compound) and the efficiency (measure of the boosting of the acetylcholine effect at an EC20 acetylcholine concentration) were determined with the aid of a 4-parameter logistic function (Hill function).

[1] = boosting of the acetylcholine effect at EC20 acetylcholine concentration

SMILES | EC50 [nM] | Emax [1] [%] | Efficiency [1] [%]
O=C(NCc1c(Cl)cccc1Cl)c1cn(-c2c(F)cc(F)cc2F)c2nc(N3C[C@@H](O)[C@H](O)C3)c(F)cc2c1=O [Example 132, N-(2,6-Dichlorobenzyl)-7-[(3R,4R)-3,4-dihydroxypyrrolidin-1-yl]-6-fluoro-4-oxo-1-(2,4,6-tri-fluorophenyl)-1,4-dihydro-1,8-naphthyridine-3-carboxamide] | 10 | 99 | 
O=C(NC(C(F)(F)F)C(F)(F)F)c1cn(-c2ncc(F)cc2F)c2nc(N3CCC(CO)(CO)CC3)c(F)cc2c1=O [Example 195, 7-[4,4-bis(hydroxymethyl)piperidin-1-yl]-1-(3,5-difluoropyridin-2-yl)-6-fluoro-N-(1,1,1,3,3,3-hexafluoropropan-2-yl)-4-oxo-1,4-dihydro-1,8-naphthyridine-3-carboxamide] | 58 | 100 | 
CCC(C)(CC)NC(=O)c1cn(-c2c(F)cc(F)cc2F)c2nc(N3C[C@@H](O)[C@@H](O)C3)c(F)cc2c1=O [Example 78, 7-[(3R,4S)-3,4-Dihydroxypyrrolidin-1-yl]-6-fluoro-N-(3-methylpentan-3-yl)-4-oxo-1-(2,4,6-trifluorophenyl)-1,4-dihydro-1,8-naphthyridine-3-carboxamide] | 2.8 | 100 | 
CC(NC(=O)c1cn(-c2c(F)cc(F)cc2F)c2nc(N3C[C@@H](O)[C@H](O)C3)c(Br)cc2c1=O)C(F)(F)C(F)(F)F (stereo partly drawn) [Example 158, 6-Bromo-7-[(3R,4R)-3,4-dihydroxypyrrolidin-1-yl]-4-oxo-N-[3,3,4,4,4-pentafluorobutan-2-yl]-1-(2,4,6-trifluorophenyl)-1,4-dihydro-1,8-naphthyridine-3-carboxamide] | 3.7 | 100 | 
COC[C@@H](NC(=O)c1cn(-c2c(F)cc(F)cc2F)c2nc(N3C[C@@H](O)[C@@H](O)C3)c(F)cc2c1=O)C(C)C [Example 102, 7-[(3R,4S)-3,4-Dihydroxypyrrolidin-1-yl]-6-fluoro-N-[(2S)-1-methoxy-3-methylbutan-2-yl]-4-oxo-1-(2,4,6-trifluorophenyl)-1,4-dihydro-1,8-naphthyridine-3-carboxamide] | 295 | 92 | 
CC(NC(=O)c1cn(-c2ncc(F)cc2F)c2nc(N3CC(O)C(O)C3)c(F)cc2c1=O)C(F)(F)C(F)(F)F (single isomer, unassigned) [Example 46] | 51 |  | 100
CC(C)C(COC(F)(F)F)NC(=O)c1cn(-c2c(F)cc(F)cc2F)c2nc(N3C[C@@H](O)[C@H](O)C3)c(F)cc2c1=O (mixture of isomers) [Example 233, 7-[(3R,4R)-3,4-dihydroxypyrrolidin-1-yl]-6-fluoro-N-[3-methyl-1-(trifluoromethoxy)butan-2-yl]-4-oxo-1-(2,4,6-trifluorophenyl)-1,4-dihydro-1,8-naphthyridine-3-carboxamide] | 2.3 | 100 | 
O=C(NCC(F)(F)F)c1cn(-c2c(F)cc(F)cc2Cl)c2nc(N3C[C@@H](O)[C@H](O)C3)c(F)cc2c1=O [Example 221, 1-(2-Chloro-4,6-difluorophenyl)-7-[(3R,4R)-3,4-dihydroxypyrrolidin-1-yl]-6-fluoro-4-oxo-N-(2,2,2-trifluoroethyl)-1,4-dihydro-1,8-naphthyridine-3-carboxamide] | 31 | 85 | 
CC(C)C(NC(=O)c1cn(-c2c(F)cc(F)cc2F)c2nc(N3C[C@@H](O)[C@@H](O)C3)c(F)cc2c1=O)C(F)(F)F (mixture of isomers) [Example 123, 7-[(3R,4S)-3,4-Dihydroxypyrrolidin-1-yl]-6-fluoro-4-oxo-N-[1,1,1-trifluoro-3-methylbutan-2-yl]-1-(2,4,6-trifluorophenyl)-1,4-dihydro-1,8-naphthyridine-3-carboxamide] | 3.1 | 100 | 
CC(C)C(NC(=O)c1cn(-c2c(F)cc(F)cc2F)c2nc(N3C[C@@H](O)[C@@H](O)C3)c(F)cc2c1=O)C(F)(F)F (single isomer, unassigned) [Example 137] | 3.3 | 91 | 
CCC(C)(C)NC(=O)c1cn(-c2c(F)cc(F)cc2F)c2nc(N(C)C)c(F)cc2c1=O [Example 61, 7-(Dimethylamino)-6-fluoro-N-(2-methylbutan-2-yl)-4-oxo-1-(2,4,6-trifluorophenyl)-1,4-dihydro-1,8-naphthyridine-3-carboxamide] | 2.2 | 94 | 
CC[C@H](NC(=O)c1cn(-c2c(F)cccc2F)c2nc(N3C[C@@H](O)[C@H](O)C3)c(F)cc2c1=O)C(F)(F)F [Example 3, 1-(2,6-Difluorophenyl)-7-[(3R,4R)-3,4-dihydroxypyrrolidin-1-yl]-6-fluoro-4-oxo-N-[(2S)-1,1,1-trifluorobutan-2-yl]-1,4-dihydro-1,8-naphthyridine-3-carboxamide] | 38 | 97 | 
CCC(NC(=O)c1cn(-c2c(F)cc(F)cc2F)c2nc(N3CC[C@H](O)C3)c(F)cc2c1=O)C(C)C (mixture of isomers) [Example 116, 6-Fluoro-7-[(3S)-3-hydroxypyrrolidin-1-yl]-N-[2-methylpentan-3-yl]-4-oxo-1-(2,4,6-trifluoro-phenyl)-1,4-dihydro-1,8-naphthyridine-3-carboxamide] | 3.5 | 97 | 
CC(NC(=O)c1cn(-c2c(F)cc(F)cc2F)c2nc(N3CC(CO)(CO)C3)c(F)cc2c1=O)C(F)(F)C(F)(F)F (racemic) [Example 168, 7-[3,3-Bis(hydroxymethyl)azetidin-1-yl]-6-fluoro-4-oxo-N-[3,3,4,4,4-pentafluorobutan-2-yl]-1-(2,4,6-trifluorophenyl)-1,4-dihydro-1,8-naphthyridine-3-carboxamide] | 4 | 86 | 
O=C(Nc1c(Cl)cccc1Cl)c1cn(-c2c(F)cc(F)cc2F)c2nc(N3C[C@@H](O)[C@H](O)C3)c(F)cc2c1=O [Example 130, N-(2,6-Dichlorophenyl)-7-[(3R,4R)-3,4-dihydroxypyrrolidin-1-yl]-6-fluoro-4-oxo-1-(2,4,6-trifluorophenyl)-1,4-dihydro-1,8-naphthyridine-3-carboxamide] | 2.3 | 96 | 
O=C(NC(C(F)(F)F)C(F)(F)F)c1cn(-c2c(F)cc(F)cc2F)c2nc(N3CCC[C@@H]3CO)c(F)cc2c1=O [Example 199, 6-Fluoro-N-(1,1,1,3,3,3-hexafluoropropan-2-yl)-7-[(2R)-2-(hydroxymethyl)pyrrolidin-1-yl]-4-oxo-1-(2,4,6-trifluorophenyl)-1,4-dihydro-1,8-naphthyridine-3-carboxamide] | 14 | 100 | 
CCC(CC)(CC)NC(=O)c1cn(-c2c(F)cc(F)cc2F)c2nc(N3C[C@@H](O)[C@@H](O)C3)c(F)cc2c1=O [Example 77, 7-[(3R,4S)-3,4-Dihydroxypyrrolidin-1-yl]-N-(3-ethylpentan-3-yl)-6-fluoro-4-oxo-1-(2,4,6-tri-fluorophenyl)-1,4-dihydro-1,8-naphthyridine-3-carboxamide] | 1.6 | 100 | 
COC(=O)C12CCC(NC(=O)c3cn(-c4c(F)cc(F)cc4F)c4nc(N5C[C@@H](O)[C@H](O)C5)c(F)cc4c3=O)(CC1)C2 [Example 86, Methyl 4-[({7-[(3R,4R)-3,4-dihydroxypyrrolidin-1-yl]-6-fluoro-4-oxo-1-(2,4,6-trifluoro-phenyl)-1,4-dihydro-1,8-naphthyridin-3-yl}carbonyl)amino]bicyclo[2.2.1]heptane-1-carboxylate] | 14 | 95 | 
CC(COC(F)(F)F)NC(=O)c1cn(-c2ccc(F)cc2F)c2ncc(Cl)cc2c1=O (racemic) [Example 135, 6-Chloro-1-(2,4-difluorophenyl)-4-oxo-N-[1-(trifluoromethoxy)propan-2-yl]-1,4-dihydro-1,8-naphthyridine-3-carboxamide] | 2610 | 75 | 

Reference: patent US11472803B2, “7-substituted 1-aryl-naphthyridine-3-carboxylic acid amides and use thereof” (Bayer Aktiengesellschaft, priority 2016, dated 2022)
